# Results taken from patent US10494610B2, “Three dimensional matrix for cancer stem cells” (UNIVERSITY OF SOUTH CAROLINA, priority 2013, dated 2019).
# “Also recorded” adds a separate entry of the source. No end group written: not given here.
# How the values were obtained:
# [1] = tested on: 4T1 mouse breast carcinoma cells; assay: Tumorsphere formation, size and cell number of cells encapsulated in the gel; type: cell-based; details: 9 days; for tumorsphere formation: 4T1 in 5 kPa PEGDA gel with peptide conjugated (conj) or dissolved (dis); for cell number density compared with the gel without peptide: 4T1 in PEGDA gel with peptide conjugated (conj) or dissolved (dis)
# Experimental: 4T1 and MCF7 tumor cells were cultured in RMPI-1640 medium with 10% FBS under 5% CO2 at 37° C. Cells were trypsinized after reaching 70% confluency. PEGDA macromer was dissolved in PBS and sterilized by filtration with a 0.2 μm filter. Next, 1.4×10^5/mL 4T1 or MCF7 cells suspended in PBS were added to the macromer solution with final PEGDA concentrations ranging 5-25 wt % and mixed gently with a pre-sterilized glass rod. The cell-suspended hydrogel precursor solution was crosslinked with UV for 10 min. After crosslinking, the gel was cut into disks and incubated in stem cell culture medium in ultra-low attachment tissue culture plates under 5% CO2. The stem cell medium consisted of DMEM-F12 supplemented with 0.4% bovine serum albumin (BSA), 5 μg/mL insulin, 40 ng/mL basic fibroblast growth factor (bFGF), 20 ng/mL EGF, 5% horse serum, 100 U/mL penicillin, and 100 μg/mL streptomycin.
# To determine cell viability, gels were stained with cAM/EthD live/dead dyes 2 days after encapsulation to image live and dead cells, respectively. Stained samples were imaged with an inverted fluorescent microscope (Nikon Eclipse Ti-ε, Nikon, Melville, N.Y.). Cell viability was quantified by dividing the image into smaller squares and counting the number of live and dead cells. At each time point, the gel samples were removed from the culture media and stained for imaging. Samples were rinsed twice with PBS and fixed with 4% paraformaldehyde for 3 h. After fixation, cells were permeabilized using PBS containing 0.1% Triton X-100 for 5 min. After rinsing, cells were incubated with Alexa 488 phalloidin (1:200 dilution) and DAPI (1:5000 dilution) to stain actin filaments of the cell cytoskeleton and cell nuclei, respectively. Stained samples were imaged with a Nikon Eclipse Ti-ε inverted fluorescent microscope. For visualization of cell uniformity, a confocal fluorescent microscope (Zeiss LSM-510 META Axiovert, Carl Zeiss, Germany) was used to obtain 2D images (90 μm thick layers) of the stained gels in the direction of thickness. For determination of cell number, the gel samples were homogenized, cells were lysed, and aliquots were used to measure the double stranded DNA (dsDNA) content using a Quant-it PicoGreen assay. Briefly, an aliquot (100 μL) of the working solution was added to 100 μL of the cell lysate and incubated for 4 min at ambient conditions. The fluorescence of the solution was measured with a plate reader (Synergy HT, Bio-Tek, Winooski, Vt.) at emission and excitation wavelength of […], respectively. Measured fluorescent intensities were correlated to cell numbers using a calibration curve constructed with 4T1 or MCF7 cells of known concentration ranging from zero to […].
# The tumor cells were cultured in RMPI-1640 medium with 10% FBS under 5% CO2 at 37° C. Cells were trypsinized after reaching 70% confluency. The synthesized acrylamide-terminated peptides were added to the PEGDA macromer solution and the mixture was sterilized by filtration (220 nm filter). Next, 1.4×10^5/ml cells (4T1, MCF7, or MCF10a) were added to the macromer solution and mixed gently with a pre-sterilized glass rod. The cell-suspended hydrogel precursor solution was crosslinked with UV for 10 min as described above. After cross-linking, the gel was cut into disks and incubated in stem cell culture medium on ultra-low attachment tissue culture plates under 5% CO2. The stem cell medium consisted of DMEM-F12 supplemented with 0.4% BSA, 5 μg/ml insulin, 40 ng/ml bFGF, 20 ng/ml EGF, 5% horse serum, 100 U/ml penicillin, and 100 μg/ml streptomycin. For growing tumorspheres in suspension, trypsinized cells (4T1 or MCF7) were cultured on ultra-low attachment tissue culture plates with stem cell culture medium under 5% CO2 at 37° C.
# To determine cell viability, gels were stained with cAM and EthD dyes after cell encapsulation to image live and dead cells, respectively. […]
# 4T1 cells [2] = assay: Flow cytometry of CD44+/CD24- cells isolated from the gel; type: cell-based, mouse; details: 4T1, 9 days after encapsulation in 5 kPa gel with or without conjugated peptide (about 6% without gel)
# Experimental: Cells encapsulated in the gel were fixed with 4% paraformaldehyde for 30 min followed by washing with PBS. Next, the gel was incubated in oxidative degradation solution (0.1M CoCl in 20% hydrogen peroxide). After the gel was degraded, cells were washed three times with cold PBS containing 5% BSA. MCF7 cells were incubated with phycoerythrin (PE) mouse anti-human CD24 and fluorescein isothiocyanate (FITC) mouse anti-human CD44 (BD Biosciences, Franklin Lakes, N.J.), and 4T1 cells were incubated with PE-anti-mouse CD24 and FITC-anti-mouse CD44 (eBioscience, San Diego, Calif.) in 100 μl PBS with 5% BSA for 45 min on ice in the dark. Cells were then washed with cold PBS with 5% BSA three times and analyzed by a flow cytometer (FC500, Beckman Coulter, Brea, Calif.). Flow cytometry was done multiple times on each sample to ascertain reproducibility of the results.
# 4T1 cells [3] = assay: Tumor growth in vivo of cell encapsulated gels implanted subcutaneously; design: species or system syngeneic Balb/C mice; details: 4T1 cells in dPEGDA gel, subcutaneous, 4 weeks after inoculation
# Experimental: To test tumor formation ability of 4T1 cells in the hydrogel, the cell encapsulated gels were cultured in vitro in the stem cell medium for 9 days as described above. After tumorsphere formation, gel pieces containing 1×10^5 tumorsphere cells were implanted subcutaneously in syngeneic Balb/C mice (6 mice/group). Groups included 4T1 tumorsphere cells, grown on ultra-low attachment plates, and injected subcutaneously (control group), degradable version of the PEGDA gel (dPEGDA) without tumor cells (control group), 4T1 cells encapsulated in the dPEGDA and cultured in vitro for 9 days prior to implantation, and 4T1 cells encapsulated in CD44BP-conjugated dPEGDA gel and cultured in vitro for 9 days prior to implantation. When tumors became measurable, tumor size and growth rate were measured and calculated. Mice were euthanized when tumor volume reached above 1000 mm^3 or 4 weeks after inoculation.
substance,measurement,setting,value
GRGDS [IBP],tumorsphere formation,[1],completely abolished
same,cell number density compared with the gel without peptide,[1],reduced cell number
same,percentage of CD44+/CD24− cells,4T1 cells [2],5.4%
"RLVSYNGIIFFLK [conj CD44BP] (RLVSYNGIIFFLK-NH2; also: conjugated to PEGDA gel, site not given here)",tumorsphere formation,[1],completely abolished sphere formation
same,tumorsphere formation,[1]; listed as CD44BP,inhibits tumorsphere formation; also recorded: completely abolished
same,cell number density compared with the gel without peptide,[1],strongest effect on cell density
same,cell number density compared with the gel without peptide,[1]; listed as CD44BP,reduced cell number
same,percentage of CD44+/CD24− cells,4T1 cells [2],6.5%
same,tumor formation in vivo,4T1 cells [3],did not form a visible tumor
same,tumor formation in vivo,4T1 cells [3]; listed as CD44BP,Tumor growth was not observed
WQPPRARI [FHBP],tumorsphere formation,[1],increased; also recorded: enhanced
same,cell number density compared with the gel without peptide,[1],higher cell number
same,size of cell aggregates / spheres,[1]; 4T1 in peptide-conjugated gels,larger spheres
same,percentage of CD44+/CD24− cells,4T1 cells [2],about 21%
